Assays:
[1] = tested on: intrabronchial desquamation and the reactive mucousa iperplasye; test: CCl nebulization in rats, bronchial desquamation and mucosal hyperplasia; format: in vivo; details: oral 0.5 g/kg/die (esters: equivalent to 0.5 g/kg/die of the acid); nebulization 10 days, 5 nebulizations for 2 minutes a day
in vivo = details: ip, i.p. administration in the mouse, buffered with sodium bicarbonate at pH 6, read-out: DL50 (the source's name)
[2] = tested on: bronchial ipersecretion induced with S02; test: bronchial hypersecretion induced with SO2 in rats; format: in vivo; details: oral, two weeks, 0.5 g/kg/die (esters: equivalent to 0.5 g/kg/die of free acid); 300 ppm SO2 two hours a day, total 90 hours; untreated animals 80%
Description: Under the same experimental conditions in tests carried out with Carbocysteine at the same dose (0.5 g/kg/die) the percentage of the non protected animals was 25%.

[3] = tested on: mucins of the fibrillar reticulum; test: glycopeptide analysis of bronchial mucus from orally treated patients; format: in vivo; details: comparative test, 70 mg/kg/die
Description: The analysis of the glycopeptides of the bronchial mucus obtained by hydrolysis with papaine (24 hours at 37°C, pH 6.5) followed by pronasis (24 hours at 37°C at pH 7.3) and fractionation by electrophoresis on agarose at pH 8.6 and finally chromatografy on DEAE -Sephadex A/25 column has shown an average increasing of about 100% of the sialoglycopeptides (hydrophil- ics) with a reduction higher than 60% of the weakly acid glycopeptides and neutral mucins (hydrophobics) followed by lowering of the viscosity.

| SMILES | hindering of the intrabronchial desquamation and the reactive mucousa iperplasye [1] [%] | LD50 (in vivo) [mg/kg] | bronchial obstruction, percentage of treated (non protected) animals [2] [%] | average increasing of the sialoglycopeptides [3] [%] | decreasing of the glycopeptides and mucins [3] [%] |
| --- | --- | --- | --- | --- | --- |
| N[C@@H](CSCC(=O)O)C(=O)O [Carbocysteine] | ≤ 40 | 5180 | 25 | ≤ 75 | ≤ 45 |
| CC(SCC(=O)O)C(=O)NCC(=O)O (stereo not shown) [S-carboxymethyl-propionyl-glycine] |  | 5420 |  |  |  |
| O=C(O)CNC(=O)CCSCC(=O)O [beta-(S-carboxvmethvl)-propionvl-qlvcine] |  | 5500 |  |  |  |
